The conditions of series [1]: helium pycnometry; for True Density: individual runs; for True Density MEAN: mean of runs. The procedure:
Determination of True Density by Helium Pychnometry.
Equipment used: Micromeritics AccuPyc II 1340
Run fill pressure 19.5 psig
Equilibration rate 0.02 psig
Percentage full scale 0.05%
Testing was performed in duplicate.

The conditions of series [2]: 25° C.; for DVS weight gain at high relative humidity: 90% RH and above; for DVS weight above reference weight after sorption/desorption cycle: end of second desorption stage (0-95% RH-0%). The procedure:
Dynamic Vapour Sorption (DVS) Analysis DVS analyses are performed using an SMS DVS Intrinsic analyser (serial number PF 140088) in open aluminium pans at 25° C. with a nitrogen purge gas at 100 ml/min. The stability criterion was a weight change lower than 0.002% on a 5 minute time frame (with a minimum of 10 min and a maximum of 100 min).

For series [3] the following is noted: six months at 40° C. and 75% humidity. The procedure: TETA.4HC obtained in accordance with Reference Example 3 was compressed to form a tablet. The tablet was aged for six months at 40° C. and 75% humidity.
Series [4] in a line: Heckel test (compaction simulator, yield pressure, strain rate sensitivity). The note with it: for Compact observations / Ejection Force / Peak Force of Upper punch / Yield Pressure: individual runs; for Yield pressure Slow (0.1 mm/s) / Yield pressure fast (300 mm/s): summary mean of runs; for Strain rate sensitivity: yield pressure at 300 mm/s compared to 0.1 mm/s.
How the values of series [5] were obtained: Onset, Peak Temperatures and Enthalpies Thermogravimetric Analysis (TGA) Thermogravimetric analyses were performed using a Pyris 1 TGA analyser (serial number 537N7052501) in sealed aluminium pans, punctured before analysis, under nitrogen flush at 20 mL/min.
Where [6] appears, read: fast speed 300 mm/s, listed as Ref Example 3.
The mark [7] stands for this setting: slow speed 0.1 mm/s, listed as Ref Example 3.

Where “and” joins values, the source holds several entries; their conditions need not be identical. Identical values can stand only once. Like-named read-outs stand apart in the source and are kept apart here.

Take `Cl.Cl.Cl.Cl.NCCNCCNCCN` [Reference Example 3, triethylenetetramine tetrachloride, reference compound]: in series [1] (listed as Ref Example 3), the “True Density” value was 1.3523 g/mL and 1.3431 g/mL; the “True Density MEAN” value stood at 1.3477 g/mL. In addition, in series [2] (listed as Ref Example 3), the “DVS weight gain at high relative humidity” value is not below 60.8% and the “DVS weight above reference weight after sorption/desorption cycle” value turned out to be 14.4%. Besides, the “DVS weight above reference weight after sorption/desorption cycle” value in series [2] (listed as Form A) is on record as 14-15%. Further, in series [2] (second desorption stage), the “DVS weight above reference weight, minimum value reached” value was 7.9%. Besides, the “Tablet appearance after aging” value in series [3] is “discoloured patches”. In addition, the Compact strength in series [4] (fast speed 300 mm/s) is 4-6 Kiloponds. Also, in series [4] (setting [6]), the Compact observations result is “Good but blistering”; the “Ejection Force” value was 0.421 kN and 0.327 kN and 0.381 kN; the “Peak Force of Upper punch” value is 14.644 kN and 14.752 kN and 14.617 kN; the “Yield Pressure” value is 127.197 Mpa and 125.309 Mpa and 129.748 Mpa. In addition, the Compact strength in series [4] (setting [6]) is 6.59 Kiloponds and 4.27 Kiloponds and 4.75 Kiloponds. In addition, the Compact strength in series [4] (slow speed 0.1 mm/s) is on record as 6-11 Kiloponds. In series [4] (setting [7]), the Compact observations entry is recorded as “Good”; the “Ejection Force” value is 0.039 kN and −0.007 kN and −0.020 kN; the “Peak Force of Upper punch” value was 20.830 kN and 18.543 kN and 19.570 kN; the “Yield Pressure” value was 101.529 Mpa and 95.501 Mpa and 97.474 Mpa. For the same molecule, the Compact strength in series [4] (setting [7]) was 6.41 Kiloponds and 7.45 Kiloponds and 11.17 Kiloponds. In addition, in series [4] (listed as Ref Example 3), the “Yield pressure Slow (0.1 mm/s)” value was 98.17 Mpa, the “Yield pressure fast (300 mm/s)” value was 127.42 Mpa and the Strain rate sensitivity is given as 29.8%.
For the molecule `Cl.Cl.Cl.Cl.NCCNCCNCCN` [Example 2, triethylenetetramine tetrachloride], in series [1], the “True Density” value is 1.3693 g/mL and 1.3973 g/mL and 1.3678 g/mL; the “True Density MEAN” value was 1.3686 g/mL. Further, in series [2], the “DVS weight gain at high relative humidity” value is on record as not below 55.8% and the “DVS weight above reference weight after sorption/desorption cycle” value was “almost reaches its reference weight”. In series [2] (listed as Form B), the “DVS weight gain at high relative humidity” value is on record as 50-59%. The “TGA weight loss (total)” value in series [5] (25-300° C., 10° C./min) turned out to be 10.24%. For the same molecule, the “TGA weight loss starting temperature” value in series [5] (25-300° C., 10° C./min, nitrogen) was found to be 225 °C. This molecule also displayed a TGA weight loss in series [5] (between 225.0-289.5° C.) of 2.64%. The TGA weight loss in series [5] (between 289.5-299.0° C.) is given as 7.60%. Also, in series [4] (fast speed 300 mm/s), the Compact strength is 9.83 Kiloponds and 11.58 Kiloponds and 8.88 Kiloponds; the Compact observations result is recorded as “Good shiny”; the “Ejection Force” value is 0.441 kN and 0.456 kN and 0.417 kN; the “Peak Force of Upper punch” value was 14.566 kN and 14.542 kN and 14.717 kN. The “Yield Pressure” value in series [4] (fast speed 300 mm/s) is 129.865 Mpa and 129.108 Mpa and 129.861 Mpa. In series [4] (slow speed 0.1 mm/s), the Compact strength is 12.07 Kiloponds and 7.52 Kiloponds and 9.64 Kiloponds and 9.19 Kiloponds; the Compact observations entry is reported as “Good shiny”; the “Ejection Force” value is 0.044 kN and 0.053 kN and 0.080 kN and 0.060 kN; the “Peak Force of Upper punch” value is 20.211 kN and 24.088 kN and 24.175 kN and 23.906 kN. For the same molecule, in series [4] (slow speed 0.1 mm/s), the “Yield Pressure” value was 106.465 Mpa and 117.516 Mpa and 118.116 Mpa and 115.227 Mpa. For the same molecule, in series [4], the “Yield pressure Slow (0.1 mm/s)” value was 114.33 Mpa (±5.39), the “Yield pressure fast (300 mm/s)” value is reported as 129.61 Mpa (±0.44) and the Strain rate sensitivity is given as 13.4%.

These data come from patent US11117855B2, “Crystalline form of triethylenetetramine tetrahydrochloride and its pharmaceutical use” (Orphalan S.A., priority 2018, dated 2021).
